Values joined by “and” are separate entries in the source; they are usually repeats but may differ in a detail not shown here. Identical values can stand only once.
What was measured:
[1] = system: MAC 13 tumour, murine colon cancer; assay: Tumour growth inhibition, MAC 13 tumour transplanted s.c.; assay type: in vivo, NMRI mice; settings: 400 mg/kg body weight, intraperitoneal, days of treatment 1-5
Source text: (§1) Pure strain NMRI mice (age 6-8 weeks) from our inbred colony were used for transplanting MAC (murine colon cancer) tumours, M5076 reticulum cell sarcoma (ovarian) were transplanted in BDF1 mice purchased from Harlan, Bicester, U.K. Animals were fed on RM3E diet (Lillco-England) and water ad libitum.
(§2) Approximately 2×2 mm of MAC13 tumour fragments were transplanted subcutaneously in the inguinal region via a trocar while the M5076 was homogenised and 1×10^6 cells transplanted intramuscularly in the inguinal region. Tumour bearing mice were randomised in groups of 5-7 animals per group. Treatment commenced one day after transplant for M5076 and two days for MAC13. Untreated or vehicle controls were included. Daily weights were recorded. Chemotherapy effects were assessed on day 14 or thereabouts depending on the tumour sizes and condition of the animals. Mice were killed and the effects of the chemotherapy were assessed by the differences in tumour weights and expressed as: % T/C, i.e. inhibition=100-Treated weight/Control weight×100% Body weight changes were recorded in order to assess toxicity. MAC15A

[2] = system: M5076 tumour, ovarian cancer (reticulum cell sarcoma); assay: Tumour growth inhibition, M5076 tumour transplanted i.m.; assay type: in vivo, BDF1 mice; settings: 400 mg/kg body weight, intraperitoneal, days of treatment 1-11
Source text: as §1, §2

[3] = system: MAC15 tumour, murine colon cancer; assay: Tumour growth inhibition, MAC15 tumour transplanted s.c.; assay type: in vivo, NMRI mice; settings: intraperitoneal; for Tumour weight: individual animals
Description: as §1
The tumour is routinely passaged as an ascites. Approximately 2×10^5 cells were transplanted subcutaneously in saline in a volume of 0.2 ml. Mice were randomised in groups of 5-7 animals per group. Untreated or vehicle controls were included. Treatment commenced two days after transplant. Body weight was recorded daily. The effects of chemotherapy were assessed between 7-9 days after transplant. Mice were killed and the effects measured by the differences in tumour weights and expressed as: % T/C, i.e. […] Body weight changes were recorded in order to assess toxicity.

[4] = system: H460 non-small cell lung cancer human xenograft; assay: Antitumour test, H460 NSCLC human xenograft; assay type: in vivo, Nu nude mice; settings: 500 mg/kg, i.p. days 0-4
Description: (§3) Fragments of the non-small cell lung cancer, H460, and DLD-1 colon cancer human xenografts were transplanted sub-cutaneously in both flanks of 14 female Nu nude mice from an inbred colony (B7K Universal, Hull, UK). Mice received CRM diet (SDS, WItham, UK) and water ad libitum. All experiments were carried out under a project license issued by the UK Home Office, and UKCCCR guidelines were followed throughout.
(§4) Therapy commenced once tumours had grown to a sufficient size to be measured accurately (minimum 4 mm×4 mm), which was 10 days for H460 and 19 days for DLD-1. 10 tumours grew sufficiently to use in 7 mice for both the test and untreated groups.
In the case of H460, the compound of Example 4 was administered at a concentration of 500 mg/kg body weight/day, intraperitoneally (i.p.), daily for 5 days (designated days 0-4). Animals were monitored daily for any toxicity effects, and tumours were measured, and weights recorded daily over the period of therapy and then on day 7 (untreated and test groups), and day 8 (test group). On day 7 for the untreated group, and day 8 for the test group, the largest tumour diameter was greater than the maximum permitted 17 mm, and subjects were then euthenised by UK Home Office Schedule 1 methods.
(§5) In both cases tumour volumes were assessed by caliper measurements of 2 perpendicular diameters and the volumes estimated using the following equation: Volumes−(a^2×b)/2, where a is the smaller, and b the larger diameter of the two. The effects of the therapy were determined from the difference in tumour volume-doubling time between treated and control groups, and the significance of any tumour growth delay determined using the Mann-Whitney U Test.

[5] = system: DLD-1 colon cancer human xenograft; assay: Antitumour test, DLD-1 colon cancer human xenograft; assay type: in vivo, Nu nude mice; settings: 500 mg/kg, i.p. days 0-4
Description: as §3, §4
[…], and assessing tumour growth compared to a control untreated group until the tumours have reached the maximum permitted size (day 16 control and tested group).
as §5

[6] = 300 mg/kg body weight, days of treatment 1-5
[7] = 400 mg/kg body weight, days of treatment 1-5
[8] = RTV2 = relative tumour volume doubling

CN(C=O)C(=O)/C(Cl)=C(/Cl)C(=O)O [Example 3, (Z)-2,3-dichloro-4-[N-formyl-N-methylamino]-4-oxo-but-2-enoic acid]
% Tumour growth inhibition [1]: 92%
Mean tumour weight [1]: 0.031 g
Tumour weight ([1]; individual animals, 400 mg/kg): 0.053 g and 0.045 g and 0.030 g and 0.023 g and 0.0 g and 0.036 g
% Tumour growth inhibition [2]: 97%
Mean tumour weight [2]: 0.008 g
Tumour weight ([2]; individual animals, 400 mg/kg): 0 g (5×) and 0.052 g
% Tumour growth inhibition [3, 6]: 68%
Mean tumour weight [3, 6]: 0.195 g
% Tumour growth inhibition [3, 7]: 81%
Mean tumour weight [3, 7]: 0.117 g
Tumour weight ([3]; 300 mg/kg body weight, days of treatment 1-5, 300 mg/kg): 0.194 g and 0.201 g and 0.190 g and 0.176 g and 0.214 g
Tumour weight ([3]; 400 mg/kg body weight, days of treatment 1-5, 400 mg/kg): 0.074 g and 0.094 g and 0.190 g and 0.096 g and 0.132 g

CN1C(=O)C(Cl)=C(Cl)C(=O)C1O (centres unmarked) [Example 4, 3,4-dichloro-6-hydroxy-1-methyl-2,5-dioxo-1.6-dihydropyridine]
% Tumour growth inhibition ([3]; 500 mg/kg body weight, day 1-5): 86%
Mean tumour weight ([3]; 500 mg/kg body weight, day 1-5): 0.056 g
Tumour weight ([3]; 500 mg/kg body weight, day 1-5, 500 mg/kg): 0.076 g and 0.033 g and 0.0 g (3×) and 0.090 g and 0.060 g and 0.134 g and 0.114 g
Maximum % weight loss [4]: 6.9%
Median time RTV2 [4]: 6.4 days
Mean time to RTV2 [4, 8]: 6.2 days
Growth delay ([4]; versus untreated controls): 3.9 days
Maximum % weight loss [5]: 4.3%
Median time RTV2 [5]: 9.8 days
Mean time to RTV2 [5, 8]: 9.9 days
Growth delay ([5]; versus untreated controls): 6.7 days

Reference: US7750181B2, “Antiproliferative agents” (EPX Research Limited, priority 2002, dated 2010)
